Reference: US4656166A, “Antibiotic compounds derived from cephalosporins, process for their production and pharmaceutical compositions” (Sanofi, priority 1983, dated 1987)
Converted amounts (≈) assume the structure as drawn.

Tests used:
Type in all cases: cell-based
Klebsiella RO 30 = assay: MIC, in vitro dilution method, Klebsiella RO 30 (Table III); settings: RO30; Klebsiella RO 30; dilution method; read-out: MIC
Text: (§1) The products of the invention have been studied as regards their pharmacological properties and, more especially, bacteriostatic action. This has been determined in vitro by the dilution method, and the study was on Gram negative strains.
(§2) Results, expressed in minimum inhibiting concentrations (MIC-- μg/ml), are collected in the following table (Table III).

Escherichia coli SOL 90 = assay: MIC, in vitro dilution method, Escherichia coli SOL 90 (Table III); settings: SOL90; Escherichia coli SOL 90; dilution method; read-out: MIC
Text: as §1, §2

Citrobacter RL 49 = assay: MIC, in vitro dilution method, Citrobacter RL 49 (Table III); settings: RL49; Citrobacter RL 49; dilution method; read-out: MIC
Text: as §1, §2

[1] = tested on: Proteus vulgaris RL 99 bis; assay: MIC, in vitro dilution method, Proteus vulgaris RL 99 bis (Table III); settings: RL99BIS; Proteus vulgaris RL 99 bis; dilution method; read-out: MIC
Text: as §1, §2

Serratia RL 72 = assay: MIC, in vitro dilution method, Serratia RL 72 (Table III); settings: RL72
Text: as §1, §2

Pseudomonas RL 112 = assay: MIC, in vitro dilution method, Pseudomonas RL 112 (Table III); settings: RL112
Text: as §1, §2

Enterobacter RO 154 = assay: MIC, in vitro dilution method, Enterobacter RO 154 (Table III); settings: RO154; Enterobacter RO 154; dilution method; read-out: MIC
Text: as §1, §2

| Compound | MIC (Klebsiella RO 30) | MIC (Escherichia coli SOL 90) | MIC (Citrobacter RL 49) | MIC [1] | MIC (Serratia RL 72) | MIC (Pseudomonas RL 112) | MIC (Enterobacter RO 154) |
| --- | --- | --- | --- | --- | --- | --- | --- |
| CSCC[C@H](N)C(=O)OCC1=C(C(=O)O)N2C(=O)C(NC(=O)/C(=N\OC(C)(C)C(=O)O)c3csc(N)n3)C2[S+]([O-])C1 (stereo partly drawn) [41 887] | 0.5 µg/mL (≈ 0.79 µM) | 2 µg/mL (≈ 3.16 µM) | 4 µg/mL (≈ 6.32 µM) | 0.25 µg/mL (≈ 0.395 µM) | 4 µg/mL (≈ 6.32 µM) | 8 µg/mL (≈ 12.6 µM) | 8 µg/mL (≈ 12.6 µM) |
| NCc1cccc(C(=O)SCC2=C(C(=O)O)N3C(=O)C(NC(=O)C(=NOC4(C(=O)O)CCC4)c4csc(N)n4)C3[S+]([O-])C2)c1 (stereo not drawn) [compound 42532] | 0.25 µg/mL (≈ 0.377 µM) | 0.5 µg/mL (≈ 0.754 µM) | 0.25 µg/mL (≈ 0.377 µM) | ≤ 0.125 µg/mL | 1 µg/mL (≈ 1.51 µM) | 8 µg/mL (≈ 12.1 µM) | 0.5 µg/mL (≈ 0.754 µM) |
| NCc1cccc(C(=O)OCC2=C(C(=O)O)N3C(=O)C(NC(=O)/C(=N\OC4(C(=O)O)CCC4)c4csc(N)n4)C3[S+]([O-])C2)c1 (stereo not drawn) [42 462] | ≤ 0.125 µg/mL | 0.25 µg/mL (≈ 0.387 µM) | ≤ 0.125 µg/mL | ≤ 0.125 µg/mL | 0.5 µg/mL (≈ 0.773 µM) | 4 µg/mL (≈ 6.19 µM) | ≤ 0.125 µg/mL |
| CC(CN)C(=O)OCC1=C(C(=O)O)N2C(=O)C(NC(=O)C(=NOC(C)(C)C(=O)O)c3csc(N)n3)C2[S+]([O-])C1 (stereo not drawn) [42 025] | 0.5 µg/mL (≈ 0.852 µM) | 0.5 µg/mL (≈ 0.852 µM) | 0.5 µg/mL (≈ 0.852 µM) | 0.25 µg/mL (≈ 0.426 µM) | 1 µg/mL (≈ 1.7 µM) | 4 µg/mL (≈ 6.82 µM) | 4 µg/mL (≈ 6.82 µM) |
| CC(O/N=C(\C(=O)NC1C(=O)N2C(C(=O)O)=C(COC(=O)CCCCN)C[S+]([O-])C12)c1csc(N)n1)C(=O)O (stereo not drawn) [42 214] | ≤ 0.12 µg/mL | ≤ 0.12 µg/mL | ≤ 0.12 µg/mL | ≤ 0.12 µg/mL | 0.5 µg/mL (≈ 0.852 µM) | 16 µg/mL (≈ 27.3 µM) | ≤ 0.12 µg/mL |
| CC(O/N=C(\C(=O)NC1C(=O)N2C(C(=O)O)=C(COC(=O)[C@H]3CC[C@H](CN)CC3)C[S+]([O-])C12)c1csc(N)n1)C(=O)O (stereo partly drawn) [42 217] | ≤ 0.12 µg/mL | ≤ 0.12 µg/mL | ≤ 0.12 µg/mL | ≤ 0.12 µg/mL | 0.25 µg/mL (≈ 0.399 µM) | 16 µg/mL (≈ 25.5 µM) | ≤ 0.12 µg/mL |
| CCC(C)C(N)C(=O)OCC1=C(C(=O)O)N2C(=O)C(NC(=O)C(=NOC(C)(C)C(=O)O)c3csc(N)n3)C2[S+]([O-])C1 (stereo not drawn) [41 860] | 0.5 µg/mL (≈ 0.813 µM) | 2 µg/mL (≈ 3.25 µM) | 1 µg/mL (≈ 1.63 µM) | 0.5 µg/mL (≈ 0.813 µM) | 4 µg/mL (≈ 6.51 µM) | 16 µg/mL (≈ 26 µM) | 8 µg/mL (≈ 13 µM) |
| Cc1cc(C)c(C(=O)OCC2=C(C(=O)O)N3C(=O)C(NC(=O)C(=NOC4(C(=O)O)CCC4)c4csc(N)n4)C3[S+]([O-])C2)c(C)c1CN (stereo not drawn) [42 542] | ≤ 0.25 µg/mL | 0.5 µg/mL (≈ 0.726 µM) | 0.5 µg/mL (≈ 0.726 µM) | ≤ 0.125 µg/mL | 0.5 µg/mL (≈ 0.726 µM) | 8 µg/mL (≈ 11.6 µM) | 0.5 µg/mL (≈ 0.726 µM) |
| Nc1nc(/C(=N/OC2(C(=O)O)CCC2)C(=O)NC2C(=O)N3C(C(=O)O)=C(COC(=O)CC4CCCCN4)C[S+]([O-])C23)cs1 (stereo not drawn) [42 471] | 0.25 µg/mL (≈ 0.391 µM) | 0.5 µg/mL (≈ 0.783 µM) | 0.25 µg/mL (≈ 0.391 µM) | ≤ 0.125 µg/mL | 0.5 µg/mL (≈ 0.783 µM) | 8 µg/mL (≈ 12.5 µM) | 0.25 µg/mL (≈ 0.391 µM) |
| Cc1c(CN)cccc1C(=O)OCC1=C(C(=O)O)N2C(=O)C(NC(=O)C(=NOC3(C(=O)O)CCC3)c3csc(N)n3)C2[S+]([O-])C1 (stereo not drawn) [42 540] | ≤ 0.125 µg/mL | 0.25 µg/mL (≈ 0.378 µM) | 0.125 µg/mL (≈ 0.189 µM) | ≤ 0.125 µg/mL | 0.25 µg/mL (≈ 0.378 µM) | 4 µg/mL (≈ 6.05 µM) | ≤ 0.125 µg/mL |
| CC(C)[C@H](N)C(=O)OCC1=C(C(=O)O)N2C(=O)C(NC(=O)/C(=N\OC(C)(C)C(=O)O)c3csc(N)n3)C2[S+]([O-])C1 (stereo partly drawn) [41 806] | 0.5 µg/mL (≈ 0.832 µM) | 1 µg/mL (≈ 1.66 µM) | 1 µg/mL (≈ 1.66 µM) | 0.5 µg/mL (≈ 0.832 µM) | 4 µg/mL (≈ 6.66 µM) | 8 µg/mL (≈ 13.3 µM) | 8 µg/mL (≈ 13.3 µM) |
| Cc1ccc(CN)c(C)c1C(=O)OCC1=C(C(=O)O)N2C(=O)C(NC(=O)C(=NOC3(C(=O)O)CCC3)c3csc(N)n3)C2[S+]([O-])C1 (stereo not drawn) [42 541] | ≤ 0.125 µg/mL | 0.5 µg/mL (≈ 0.741 µM) | 0.25 µg/mL (≈ 0.371 µM) | ≤ 0.125 µg/mL | 0.5 µg/mL (≈ 0.741 µM) | 4 µg/mL (≈ 5.93 µM) | 0.25 µg/mL (≈ 0.371 µM) |
| Nc1nc(C(=NOC2(C(=O)O)CCC2)C(=O)NC2C(=O)N3C(C(=O)O)=C(CSC(=O)C4CCNCC4)C[S+]([O-])C23)cs1 (stereo not drawn) [compound 42219] | 0.5 µg/mL (≈ 0.78 µM) | 0.5 µg/mL (≈ 0.78 µM) | ≤ 0.12 µg/mL | ≤ 0.12 µg/mL | 1 µg/mL (≈ 1.56 µM) | 4 µg/mL (≈ 6.24 µM) | 0.5 µg/mL (≈ 0.78 µM) |
| Nc1nc(/C(=N/OC2(C(=O)O)CCC2)C(=O)NC2C(=O)N3C(C(=O)O)=C(COC(=O)C4(N)CCCC4)C[S+]([O-])C23)cs1 (stereo not drawn) [42 210] | 0.5 µg/mL (≈ 0.8 µM) | 1 µg/mL (≈ 1.6 µM) | 0.5 µg/mL (≈ 0.8 µM) | 0.25 µg/mL (≈ 0.4 µM) | 1 µg/mL (≈ 1.6 µM) | 4 µg/mL (≈ 6.4 µM) | 0.25 µg/mL (≈ 0.4 µM) |
| CC(C)(CN)C(=O)OCC1=C(C(=O)O)N2C(=O)C(NC(=O)/C(=N\OC3(C(=O)O)CCC3)c3csc(N)n3)C2[S+]([O-])C1 (stereo not drawn) [42 208] | 0.5 µg/mL (≈ 0.816 µM) | 0.5 µg/mL (≈ 0.816 µM) | 0.5 µg/mL (≈ 0.816 µM) | ≤ 0.12 µg/mL | 1 µg/mL (≈ 1.63 µM) | 4 µg/mL (≈ 6.53 µM) | 0.25 µg/mL (≈ 0.408 µM) |
